Like-named read-outs stand apart in the source and are kept apart here.

Here are results for 18 compounds from patent publication US11806346B2, “HTT modulators for treating Huntington's disease” (CHDI Foundation, Inc., priority 2020, dated 2023).

This test has as its system tHTT (total HTT protein). Put plainly: Time-resolved FRET assay, total huntingtin (tHTT) detection in cell lysates. Format: cell-based, human. The gist of the method:
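TR-FRET readout on cell lysates, with the donor/acceptor ratio reflecting relative total HTT.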

The mark [1] stands for this setting: GEN020 hESCs (mutant 48 Q repeat allele), compounds added for 48 hours, TR-FRET on lysate; read-out: tHTT EC50.

Usually EC50 stands for the concentration giving half of the maximal effect. Turning to `COc1cc(NC(=O)c2cnc(N3CC(NC4CC4)C3)cn2)cn2cc(C)nc12` [Example 374, 5-(3-(cyclopropylamino)azetidin-1-yl)-N-(8-methoxy-2-methylimidazo[1,2-a]pyridin-6-yl)pyrazine-2-carboxamide], under setting [1], the EC50 is 1000 to 10000 nM.
Consider `Cc1cn2cc(NC(=O)c3cnc(N4CCNCC4)nc3)cc(F)c2n1` [Example 126, N-(8-fluoro-2-methylimidazo[1,2-a]pyridin-6-yl)-2-(piperazin-1-yl)pyrimidine-5-carboxamide], for which the EC50 under setting [1] is 1000 to 10000 nM.
Still for that read-out and setting: to `COc1cc2nn(C)cc2cc1NC(=O)c1cnc(N2CC(CNC3CC3)C2)cn1` [Example 288, 5-(3-((cyclopropylamino)methyl)azetidin-1-yl)-N-(6-methoxy-2-methyl-2H-indazol-5-yl)pyrazine-2-carboxamide] belongs 100 to 500 nM; to `CNC1CN(c2cnc(C(=O)Nc3cc(F)c4nc(C)cn4c3)cn2)CC1F` (stereo not drawn) [Example 90], 1000 to 10000 nM.
In the case of `Cc1cn2cc(NC(=O)c3cnc(N4CC[C@@H](NC5CC5)C4)cn3)cc(C)c2n1` [Example 181, (R)-5-(3-(cyclopropylamino)pyrrolidin-1-yl)-N-(2,8-dimethylimidazo[1,2-a]pyridin-6-yl)pyrazine-2-carboxamide], under “read-out: tHTT EC50; GEN020 hESCs (mutant 48 Q repeat allele), compounds added for 48 hours, TR-FRET on lysate”, the EC50 lay in the range of 100 to 500 nM.
Regarding `COc1nc(NC(=O)c2cnc(N3CC[C@H](CNC4CC4)C3)cn2)cn2cc(C)nc12` [Example 212], the EC50 under setting [1] was in the range of 100 to 500 nM.
As for `Cc1cn2cc(NC(=O)c3cnc(N4CCC(CNC(C)C)C4)cn3)nc(C)c2n1` (single isomer, unassigned) [Example 154], the EC50 under setting [1] lay within 100 to 500 nM.
As to `Cc1cn2cc(NC(=O)c3cnc(N4CCNC[C@@H]4C)cn3)cc(F)c2n1` [Example 4], under setting [1], the EC50 lay within 1000 to 10000 nM.
Same read-out and setting: the result for `CNC[C@@H]1CCN(c2cnc(C(=O)Nc3cn4cc(C)nc4c(C)n3)cn2)C1` [Example 103] reads 500 to 1000 nM.
On to `Cc1cn2cc(NC(=O)c3cnc(N4C[C@H](C)NC[C@H]4C)cn3)cc(F)c2n1` [Example 76], for which the EC50 under setting [1] lay in the range of 100 to 500 nM.
The same measure, in the same setting: the result for `Cc1cn2cc(NC(=O)c3cnc(N4CC[C@@H](CNCCC(F)(F)F)C4)cn3)cc(F)c2n1` [Example 207, (S)—N-(8-fluoro-2-methylimidazo[1,2-a]pyridin-6-yl)-5-(3-(((3,3,3-trifluoropropyl)amino)methyl)pyrrolidin-1-yl)pyrazine-2-carboxamide] reads 100 to 500 nM; that for `Cc1cn2cc(NC(=O)c3cnc(N4CC[C@@H](CNC5CC5)C4)cn3)cc(Cl)c2n1` [Example 311], 100 to 500 nM; that for `Cc1cn2cc(NC(=O)c3cnc(N4CC(C5CCCN(C6CC6)C5)C4)cn3)cc(F)c2n1` (stereo not drawn) [Example 244, 5-(3-(1-cyclopropylpiperidin-3-yl)azetidin-1-yl)-N-(8-fluoro-2-methylimidazo[1,2-a]pyridin-6-yl)pyrazine-2-carboxamide], 500 to 1000 nM.
As for `Cc1cn2cc(NC(=O)c3cnc(N(C)C4CCNCC4)cn3)cc(F)c2n1` [Example 221, N-(8-Fluoro-2-methylimidazo[1,2-a]pyridin-6-yl)-5-(methyl(piperidin-4-yl)amino)pyrazine-2-carboxamide], the EC50 under setting [1] is under 100 nM.
Regarding `Cc1cn2cc(NC(=O)c3cnc(N4CC[C@@H](CN(C5CC5)C5CC5)C4)cn3)cc(F)c2n1` [Example 157], under setting [1], the EC50 fell in the range of 500 to 1000 nM.
For the compound `COCCOC1CN(CC2CN(c3cnc(C(=O)Nc4cc(F)c5nc(C)cn5c4)cn3)C2)C1` [Example 322, N-(8-fluoro-2-methyl-imidazo[1,2-a]pyridin-6-yl)-5-[3-[[3-(2-methoxyethoxy)azetidin-1-yl]methyl]azetidin-1-yl]pyrazine-2-carboxamide], under setting [1], the EC50 is 100 to 500 nM.
`Cc1cn2cc(NC(=O)c3cnc(N4CC[C@H](NCC5CC5)C4)cn3)cc(F)c2n1` [Example 268]: the EC50 under setting [1] is under 100 nM.
Consider `Cc1cn2cc(NC(=O)c3cnc(N4CC[C@@H](C5(N)CC5)C4)cn3)cc(F)c2n1` [Example 107, (R)-5-(3-(1-aminocyclopropyl)pyrrolidin-1-yl)-N-(8-fluoro-2-methylimidazo[1,2-a]pyridin-6-yl)pyrazine-2-carboxamide], for which the EC50 under setting [1] was under 100 nM.
